# Experimental data from publication PMC11847542 (2025).
# Key:
# [1] = test system: KRAS RNA G4-b (RNA, G4) GGCGGCGGCAGUGGCGGCGG; experiment: CD melting; conditions: 1 mM K+; 10 mM Tris-HCl pH 7.4; 2 μM RNA, 10 μM compound; Tm alone 59.5 °C
# [2] = test system: KRAS RNA G4-a (RNA, G4) GCGGCGGCGGAGGCAGCA; experiment: CD melting; conditions: 1 mM K+; 10 mM Tris-HCl pH 7.4; 2 μM RNA, 10 μM compound; Tm alone 66.0 °C
# [3] = test system: KRAS RNA G4-c (KRAS RG4) (RNA, G4) AAGGUGGCGGCGGCUCG; experiment: thiazole orange displacement, fluorescence; conditions: 100 mM K+; 10 mM Tris-HCl pH 7.4; 0.25 μM RNA; tracer 0.5 μM thiazole orange displaced
# [4] = test system: KRAS RNA G4-c (KRAS RG4) (RNA, G4) AAGGUGGCGGCGGCUCG; experiment: 1H NMR, imino protons; conditions: K+ (potassium phosphate, concentration not stated), 10% D2O, 25 °C, 200 μM RNA, 1 to 5 equivalents
# [5] = test system: KRAS RNA G4-c (KRAS RG4) (RNA, G4) AAGGUGGCGGCGGCUCG; experiment: CD melting; conditions: 1 mM K+, 10 mM Tris-HCl pH 7.4, 2 μM RNA
# [6] = test system: KRAS RNA G4-c (KRAS RG4) (RNA, G4) AAGGUGGCGGCGGCUCG; experiment: EMSA; conditions: 15% native PAGE, Tris-borate-EDTA; 10 μM RNA, 0-50 μM compound
# [7] = test system: DNA hairpin (DNA, hairpin) CGCGCGCGTTTTCGCGCGCG; experiment: competition: fluorescence recovery of MBD-quenched Cy5-labeled KRAS RG4; conditions: 100 mM K+; 10 mM Tris-HCl pH 7.4; DNA hairpin added as competitor to 1 μM Cy5-G4-c with MBD
# [8] = test system: RNA hairpin (RNA, hairpin) GGCCGCCGCAGUGGCGGCGG; experiment: as above; conditions: 100 mM K+; 10 mM Tris-HCl pH 7.4; RNA hairpin added as competitor to 1 μM Cy5-G4-c with MBD
# [9] = test system: 3'-Cy5-labeled KRAS RG4 (G4-c) (RNA, G4) AAGGUGGCGGCGGCUCG; experiment: fluorescence quenching titration of Cy5; conditions: 100 mM K+; 10 mM Tris-HCl pH 7.4; 1 μM RNA
# [10] = test system: 5'-Cy5-labeled KRAS RG4 (G4-c) (RNA, G4) AAGGUGGCGGCGGCUCG; experiment: fluorescence quenching titration of Cy5; conditions: 100 mM K+; 10 mM Tris-HCl pH 7.4; 1 μM RNA
SMILES,EC50 [3],binding [5],other results
CC1CCN(c2ccc3c(c2)c2cc([N+]4(C)CCC(C)CC4)ccc2c2nc4cc(F)c(F)cc4nc32)CC1 (stereo not shown),3300 nM,weak,
COc1cc2nc3c4ccc(N5CCC(C)CC5)cc4c4cc([N+]5(C)CCC(C)CC5)ccc4c3nc2cc1OC (stereo not shown),1400 nM,yes,
CC1CCN(c2ccc3c(c2)c2cc(N4CCC(C)CC4)ccc2c2nc4cc5ccccc5cc4nc32)CC1,45000 nM,no,

# Continued, in another order:
EC50 [3],binding [5],SMILES,other results
1500 nM,,CC1CCN(c2ccc3c(c2)c2cc([N+]4(C)CCC(C)CC4)ccc2c2nc4cc5ccccc5cc4nc32)CC1 (stereo not shown),"binding [1]: yes; binding [2]: yes; binding [4]: yes; ΔTm ([5]; 10 μM compound, Tm alone 64.1 °C): 11.0 °C; binding [6]: yes; binding [7]: no; binding [8]: no; binding [9]: yes; binding [10]: yes"
7000 nM,weak,CC1CCN(c2ccc3c(c2)c2cc([N+]4(C)CCC(C)CC4)ccc2c2nc4cc(Cl)c(Cl)cc4nc32)CC1 (stereo not shown),
1800 nM,weak,CC1CCN(c2ccc3c(c2)c2cc([N+]4(C)CCC(C)CC4)ccc2c2nc4ccccc4nc32)CC1 (stereo not shown),
1500 nM,yes,Cc1cc2nc3c4ccc(N5CCC(C)CC5)cc4c4cc([N+]5(C)CCC(C)CC5)ccc4c3nc2cc1C (stereo not shown),
